Results taken from patent US8815565B2, “Method for culturing mycoplasma contamination-free cells and method for removing mycoplasma contamination of cells” (Cellsafe Co., Ltd., priority 2010, dated 2014).
*1 amine or outer side, *2 acyl side, *3 side chain or, on linkers, in order; H or OH if unused. Where a SMILES comes first, the peptide text is derived from it. Bridges are numbered along the chain shown (N, C = ends). [ ]: non-standard residue; d: D form. X1 = CC(C)CCCCCCCCC[C@H](CC(=O)[*:1])O[*:2]

Legend:
[1] = tested on: Mycoplasma hyorhinis (ATCC17981s); assay: Inhibition of Mycoplasma hyorhinis cultured in PPLO medium, INT colour change; format: cell-based; conditions: final concentration at which INT colour change did not occur, 24 hours + 4 hours at 37° C.; for IC50: Mycoplasma, read-out: IC50
Method: In order to evaluate the effects of the extract and amphidinol derivatives prepared in Example 1 on mycoplasma, Mycoplasma hyorhinis (ATCC17981s) was cultured in a PPLO medium (pleuropneumonia-like organism basal medium, Difco Laboratories, Detroit, USA) supplemented with a fetal calf serum and a yeast extract, according to the method disclosed by Hayflick (Hayflick, 1965, Tex. Rep. Bio. Med. 23, 285-303). That is, 100 μl of the medium was placed on each well of a 96-well plate, and a sample (that is, the extract and amphidinol derivatives prepared in Example 1) was added to each well, such that each sample was diluted from 2 times (i.e., 2× diluted) to 12 times (i.e., 12× diluted), the starting concentration being 1 mg/ml. Mycoplasma was cultured in a PPLO medium (pleuropneumonia-like organism basal medium, Difco Laboratories, Detroit, USA) supplemented with a fetal calf serum and a yeast extract, at a temperature of 37° C. for 48 hours. The resulting culture medium was diluted with the PPLO medium at a ratio of 1:10. 100 μl of the diluted culture medium was added to each well of the 96-well plate, so that the total amount of each well was 200 μl. After culturing at a temperature of 37° C. for 24 hours, 40 μl of 0.2 mg/ml INT (p-iodonitrotetrazolium) was added thereto and culturing was further performed for 4 hours. If the medium turns pink following the culturing, the color change means that metabolism of mycoplasma actively occurs. Also, if mycoplasma is suppressed by the sample, the medium turned pink less.

[2] = tested on: HepG2 cell line contaminated with mycoplasma; assay: Co-treatment with amphidinol 3 (AM3) and cyclic lipopeptide/antibiotic, PCR with mycoplasma diagnosis kit; format: cell-based
Method: The cell lines NIH3T3, HepG2, and Raw 264.7, which were confirmed to be contaminated with mycoplasma, were each inoculated at a concentration of 1×10^6 cells on a T-75 culture flask (NUNC, Cat. No. 156367). DMEM (GIBCO BRL, Cat. No. 12800-058) containing 10% or less of serum (GIBCO BRL, Cat. […] After culturing for 3 days, the obtained cells were treated with Trypsin-EDTA to obtain a cell solution. The resulting cells (1×10^6 cells) which was treated with amphidinol 3 (AM3) were inoculated. DMEM (GIBCO BRL, Cat. No. 12800-058) containing 10% or less of serum (GIBCO BRL, Cat. […] After culturing for 3 days, the cells were harvested. PCR was performed thereon with a mycoplasma diagnosis kit (Promokine, Germany; Cellsafe Co., Ltd., Korea) according to the enclosed protocol. The resulting PCR products were electrophoresed on a 1% agarose gel to measure the mycoplasma contamination.

| Compound | IC50 [1] [µg/mL] | minimum inhibitory concentration (no INT colour change) [1] | also measured |
| --- | --- | --- | --- |
| C=C/C=C/CC/C=C/C=C/C=C/CC/C=C/C(O)C(O)C1OC(C(O)C(O)C(=C)CCC(O)C2CC(O)C(O)C(C(O)C(O)/C=C(\C)CCC(O)CC(O)C(O)C(C)CC(O)C(O)C(C)CCC(O)CCCC(O)CCCC(O)CCCC(O)/C=C/CC(CO)OS(=O)(=O)[O-])O2)CC(O)C1O.[Na+] (stereo not drawn) [AM1, amphidinol 1] | 1 to 20 | – | – |
| C=CCC/C=C/C=C/C=C/CC/C=C/C(O)C(O)C1OC(C(O)C(O)C(=C)CCC(O)C2CC(O)C(O)C(C(O)C(O)/C=C(\C)CCC(O)CC(O)C(O)C(C)CC(O)C(O)CCCC(O)CCCC(O)CCCC(O)/C=C/CC(O)/C=C/CC(O)CO)O2)CC(O)C1O (stereo not drawn) [AM6, amphidinol 6] | – | +++ (+++: 1~20 μg/ml) | – |
| C=C/C=C/CC/C=C/C=C/C=C/CC/C=C/C(O)C(O)C1OC(C(O)C(O)C(=C)CCC(O)C2CC(O)C(O)C(C(O)C(O)/C=C(\C)CCC(O)CC(O)C(O)C(C)C(O)CCCC(O)CCCC(O)CCCC(O)/C=C/CC(O)/C=C/CC(O)CO)O2)CC(O)C1O (stereo not drawn) [AM9, amphidinol 9] | 1 to 20 | – | – |
| C=CCC/C=C/C=C/C=C/CC/C=C/C(O)C(O)C1OC(C(O)C(O)C(=C)CCC(O)C2CC(O)C(O)C(C(O)C(O)/C=C(\C)CCC(O)CC(O)C(O)C(C)CC(O)C(O)CCCC(O)CCCC(O)/C=C/CC(O)/C=C/CC(O)CO)O2)CC(O)C1O (stereo not drawn) [AM10] | 10 to 100 | – | – |
| CC(C)CCCCCCCCC[C@@H]1CC(=O)N[C@@H](CCC(=O)O)C(=O)N[C@@H](CC(C)C)C(=O)N[C@H](CC(C)C)C(=O)N[C@@H](C(C)C)C(=O)N[C@@H](CC(=O)O)C(=O)N[C@H](CC(C)C)C(=O)N[C@@H](CC(C)C)C(=O)O1 [surfactin] (EL[dL]VD[dL]L; linker N-C via X1) | – | – | mycoplasma contamination ([2]; used alone, surfactin 10 or 20 μM, ciprofloxacin 1 or 5 μg/ml, rifampicin 0.5 or 1 μg/ml): mycoplasma contamination remained; mycoplasma contamination ([2]; used together with amphidinol 3 (AM3) 5 and 10 μg/ml): completely removed |
| amphidinol 2 [AM2] | – | +++ (+++: 1~20 μg/ml) | – |
| amphidinol 5 [AM5] | – | +++ (+++: 1~20 μg/ml) | – |
| amphidinol 7 [AM7] | – | +++ (+++: 1~20 μg/ml) | – |
